For one assay, the system named is H1819. The assay can be described thus: Cell viability dose-response, H1819. It counts as cell-based, human. Conditions: Homo sapiens, NCI-H1819, Tables 3 and 4; read-out: IC50 (uM) vs indicated non-small cell lung cancer cell line H1819. The method, boiled down: (§1)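 Cells plated at 15% confluence in RPMI-1640 with 5% FBS and 2 mM L-glutamine, treated with compound in a 12-point, 3-fold dilution series from 50 micromolar, in duplicate. ATP measured by Cell Titer Glo after 4 days; IC50 taken from the dose-response curve.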
The IC50 is the concentration that gives 50% inhibition. For `COC(=O)c1ccc(C(=O)Nc2nc3ccc(N)cc3s2)cc1` [SW001296-3], the half-maximal inhibitory concentration (IC50) is 28.6 µM.

Take `C#CCOc1ccc(C(=O)c2ccc(C(=O)Nc3nc4ccc(OC)cc4s3)cc2)cc1` [SW209049-1]: the concentration for half-maximal inhibition (IC50) came out at 21 µM.

For the compound `C#CCNC(=O)c1ccc(C(=O)Nc2nc3ccccc3s2)cc1` [SW209082-1], the IC50 worked out at 45.5 µM.

For `O=C(c1ccccc1)c1ccc(NC(=O)c2nc3ccccc3s2)cc1` [SW209091-1], the half-maximal inhibitory concentration (IC50) was 9.03 µM.

In the case of `C#CCOC(=O)Nc1ccc(C(=O)Nc2nc3ccccc3s2)cc1` [SW209168-1], the IC50 is 40.1 µM.

As for `O=C(Nc1nc2ccccc2s1)c1cccc([N+](=O)[O-])c1` [SW209205-1], the half-maximal inhibitory concentration (IC50) was 0.468 µM.

Consider `O=C(Nc1nc2ccccc2[nH]1)c1ccc([N+](=O)[O-])cc1` [SW209206-1], for which the IC50 is at least 49.5 µM.

For the compound `Nc1cccc(C(=O)Nc2nc3ccccc3s2)c1` [SW209323-1], the 50% inhibitory concentration (IC50) was determined as 40.3 µM.

The same assay, now with this note: Homo sapiens, NCI-H1819; Table 8; 12-point dose-response starting at 50 micromolar.
For orientation: AC50 means the concentration giving half of the maximal activity seen. Read a low AC50 as activity at low concentration. As to `C#CCc1coc2cc(OCc3cnn(-c4ccccc4)c3)ccc2c1=O` [SW209021-1], the activity was half-maximal at 49.5 µM (AC50).

In turn, `C=CCc1coc2cc(OCc3cnn(-c4ccccc4)c3)ccc2c1=O` [SW209022-1] yielded an AC50 of 47.1 µM.

`O=c1c(Cc2ccccn2)coc2cc(OCc3cnn(-c4ccccc4)c3)ccc12` [SW209187-1] returned a concentration at half-maximal activity (AC50) of 49.5 µM.

Compound `O=c1c(Cc2ccncc2)coc2cc(OCc3cnn(-c4ccccc4)c3)ccc12` [SW209193-1] came in with a concentration at half-maximal activity (AC50) of 49.5 µM.

`O=C1/C(=C/c2ccc(F)cc2)COc2cc(OCc3cnn(-c4ccccc4)c3)ccc21` [SW209194-1] registered an AC50 of 49.5 µM.

`O=C1/C(=C/c2ccccc2C(F)(F)F)COc2cc(OCc3cnn(-c4ccccc4)c3)ccc21` [SW209195-1]: the activity was half-maximal at 49.5 µM (AC50).

On to `O=C1/C(=C/c2ccccc2F)COc2cc(OCc3cnn(-c4ccccc4)c3)ccc21` [SW209196-1], for which the AC50 was 41 µM.

In turn, `O=C1/C(=C/c2cccc(C(F)(F)F)c2)COc2cc(OCc3cnn(-c4ccccc4)c3)ccc21` [SW209197-1] had an AC50 of 21.8 µM.

In turn, `O=C1/C(=C/c2ccc(C(F)(F)F)cc2)COc2cc(OCc3cnn(-c4ccccc4)c3)ccc21` [SW209198-1] came in with an AC50 of 49.5 µM. This AC50 lies about 2.3-fold higher than the previous one.

`Cc1ccc(/C=C2\COc3cc(OCc4cnn(-c5ccccc5)c4)ccc3C2=O)cc1` [SW209199-1] gave a concentration at half-maximal activity (AC50) of 39.5 µM.

Consider `Cc1ccccc1/C=C1\COc2cc(OCc3cnn(-c4ccccc4)c3)ccc2C1=O` [SW209200-1], for which the concentration at half-maximal activity (AC50) stood at 49.5 µM.

The next assay deals with H2073. Briefly: Cell viability dose-response, H2073. It counts as cell-based, human. Conditions: Homo sapiens, NCI-H2073, Tables 3 and 4; read-out: IC50 (uM) vs indicated non-small cell lung cancer cell line H2073. As for the experimental part:
FIG. 6A. […] Cell viability is plotted vs. compound concentration. Compound was added to cells plated at 15% confluence in 96-well plates in RPMI-1640 media supplemented with 5% Fetal Bovine Serum and 2 mM L-Glutamine. After 4 days of incubation, ATP levels were measured using Cell Titer Glo (Promega). Data are presented as the average of 2 replicates ±SEM.
Selectivity may be measured by the half maximal inhibitory concentration (IC50), which, as used herein, is a measure of the effectiveness of a compound in killing cells. This quantitative measure indicates how much of a particular compound is needed to kill a particular cell population by half (e.g., as indicated by the amount of ATP). […] The IC50 can be determined by constructing a dose-response curve. The lower the IC50, the higher the potency, and the greater the difference between IC50 values for different cell lines (e.g., sensitive lines vs. insensitive lines, and sensitive lines vs. normal lines) the greater the selectivity. […]
With this information, we synthesized and tested a series of small molecules derived in conception from the oxalamide and chromone scaffold including N-acyl ureas, as shown in Tables 6-8. Each compound was tested in a 12-point dose-response study starting at 50 micromolar and decreasing in 3-fold increments to sub-nanomolar concentrations, in duplicate. Additionally, one or more additional cell line was tested in the same way.
For `C#CCNC(=O)c1ccc(C(=O)Nc2nc3ccccc3s2)cc1` [SW209082-1], the IC50 was determined as 45.5 µM.

Take `O=C(c1ccccc1)c1ccc(NC(=O)c2nc3ccccc3s2)cc1` [SW209091-1]: the IC50 amounted to 24 µM.

Consider `C#CCOC(=O)Nc1ccc(C(=O)Nc2nc3ccccc3s2)cc1` [SW209168-1], for which the IC50 was determined as 39.2 µM.

For the compound `O=C(Nc1nc2ccccc2s1)c1cccc([N+](=O)[O-])c1` [SW209205-1], the IC50 worked out at 49.5 µM.

For `O=C(Nc1nc2ccccc2[nH]1)c1ccc([N+](=O)[O-])cc1` [SW209206-1], the 50% inhibitory concentration (IC50) stood at 49.5 µM.

Take `Nc1cccc(C(=O)Nc2nc3ccccc3s2)c1` [SW209323-1]: the IC50 came to 0.816 µM.

Still in this assay, the particulars now being: Homo sapiens, NCI-H2073; Table 8; 12-point dose-response starting at 50 micromolar.
In the case of `C#CCc1coc2cc(OCc3cnn(-c4ccccc4)c3)ccc2c1=O` [SW209021-1], the AC50 was 49.5 µM.

As for `C=CCc1coc2cc(OCc3cnn(-c4ccccc4)c3)ccc2c1=O` [SW209022-1], the half-maximal activity concentration (AC50) stood at 49.5 µM.

`O=c1c(Cc2ccccn2)coc2cc(OCc3cnn(-c4ccccc4)c3)ccc12` [SW209187-1]: the half-maximal activity concentration (AC50) was 49.5 µM.

As for `O=c1c(Cc2ccncc2)coc2cc(OCc3cnn(-c4ccccc4)c3)ccc12` [SW209193-1], half-maximal activity (AC50) was put at 49.5 µM.

As to `O=C1/C(=C/c2ccc(F)cc2)COc2cc(OCc3cnn(-c4ccccc4)c3)ccc21` [SW209194-1], the activity was half-maximal at 49.5 µM (AC50).

Take `O=C1/C(=C/c2ccccc2C(F)(F)F)COc2cc(OCc3cnn(-c4ccccc4)c3)ccc21` [SW209195-1]: half-maximal activity (AC50) was put at 0.39 µM.

`O=C1/C(=C/c2ccccc2F)COc2cc(OCc3cnn(-c4ccccc4)c3)ccc21` [SW209196-1] registered a concentration at half-maximal activity (AC50) of 49.5 µM.

`O=C1/C(=C/c2cccc(C(F)(F)F)c2)COc2cc(OCc3cnn(-c4ccccc4)c3)ccc21` [SW209197-1] had an AC50 of 26 µM.

`O=C1/C(=C/c2ccc(C(F)(F)F)cc2)COc2cc(OCc3cnn(-c4ccccc4)c3)ccc21` [SW209198-1] had an AC50 of 49.5 µM.

In the case of `Cc1ccc(/C=C2\COc3cc(OCc4cnn(-c5ccccc5)c4)ccc3C2=O)cc1` [SW209199-1], the concentration at half-maximal activity (AC50) worked out at 36.1 µM.

In the case of `Cc1ccccc1/C=C1\COc2cc(OCc3cnn(-c4ccccc4)c3)ccc2C1=O` [SW209200-1], the activity was half-maximal at 49.5 µM (AC50).

Still in this assay, the particulars now being: Tables 3 and 4; read-out: IC50 (uM) vs indicated non-small cell lung cancer cell line H2073.
Turning to `COC(=O)c1ccc(C(=O)Nc2nc3ccc(N)cc3s2)cc1` [SW001296-3], the concentration for half-maximal inhibition (IC50) turned out to be 49.5 µM.

Take `C#CCOc1ccc(C(=O)c2ccc(C(=O)Nc3nc4ccc(OC)cc4s3)cc2)cc1` [SW209049-1]: the IC50 amounted to 81 µM.

The test system of a further assay is H2122. Briefly: Cell viability dose-response, H2122. It counts as cell-based, human. As to conditions: Homo sapiens, NCI-H2122, Table 8; 12-point dose-response starting at 50 micromolar. Put shortly: as §1
Consider `C#CCc1coc2cc(OCc3cnn(-c4ccccc4)c3)ccc2c1=O` [SW209021-1], for which the half-maximal activity concentration (AC50) came to 0.846 µM. This counts as sub-micromolar.

`C=CCc1coc2cc(OCc3cnn(-c4ccccc4)c3)ccc2c1=O` [SW209022-1] gave an AC50 of 0.323 µM.

On to `O=c1c(Cc2ccccn2)coc2cc(OCc3cnn(-c4ccccc4)c3)ccc12` [SW209187-1], for which the half-maximal activity concentration (AC50) was determined as 0.28 µM.

In turn, `O=c1c(Cc2ccncc2)coc2cc(OCc3cnn(-c4ccccc4)c3)ccc12` [SW209193-1] yielded a half-maximal activity concentration (AC50) of 0.549 µM.

Compound `O=C1/C(=C/c2ccc(F)cc2)COc2cc(OCc3cnn(-c4ccccc4)c3)ccc21` [SW209194-1] registered a concentration at half-maximal activity (AC50) of 0.876 µM.

In the case of `O=C1/C(=C/c2ccccc2C(F)(F)F)COc2cc(OCc3cnn(-c4ccccc4)c3)ccc21` [SW209195-1], the AC50 was 0.085 µM.

On to `O=C1/C(=C/c2ccccc2F)COc2cc(OCc3cnn(-c4ccccc4)c3)ccc21` [SW209196-1], for which the AC50 came out at 0.827 µM.

`O=C1/C(=C/c2cccc(C(F)(F)F)c2)COc2cc(OCc3cnn(-c4ccccc4)c3)ccc21` [SW209197-1] registered a half-maximal activity concentration (AC50) of 0.042 µM.

Turning to `O=C1/C(=C/c2ccc(C(F)(F)F)cc2)COc2cc(OCc3cnn(-c4ccccc4)c3)ccc21` [SW209198-1], the activity was half-maximal at 1.44 µM (AC50).

Turning to `Cc1ccc(/C=C2\COc3cc(OCc4cnn(-c5ccccc5)c4)ccc3C2=O)cc1` [SW209199-1], the concentration at half-maximal activity (AC50) stood at 43.7 µM.

Regarding `Cc1ccccc1/C=C1\COc2cc(OCc3cnn(-c4ccccc4)c3)ccc2C1=O` [SW209200-1], half-maximal activity (AC50) was put at 0.874 µM.

The assay is the same for the next values; noted with them: Homo sapiens, NCI-H2122, Tables 3 and 4; read-out: IC50 (uM) vs indicated non-small cell lung cancer cell line H2122.
For `C#CCOc1ccc(C(=O)c2ccc(C(=O)Nc3nc4ccc(OC)cc4s3)cc2)cc1` [SW209049-1], the IC50 stood at 0.131 µM.

Consider `C#CCNC(=O)c1ccc(C(=O)Nc2nc3ccccc3s2)cc1` [SW209082-1], for which the IC50 was 0.1 µM.

Turning to `O=C(c1ccccc1)c1ccc(NC(=O)c2nc3ccccc3s2)cc1` [SW209091-1], the concentration for half-maximal inhibition (IC50) worked out at 0.01 µM.

In the case of `C#CCOC(=O)Nc1ccc(C(=O)Nc2nc3ccccc3s2)cc1` [SW209168-1], the 50% inhibitory concentration (IC50) is 0.029 µM.

Take `O=C(Nc1nc2ccccc2s1)c1cccc([N+](=O)[O-])c1` [SW209205-1]: the half-inhibitory concentration (IC50) was found to be 0.397 µM.

Consider `O=C(Nc1nc2ccccc2[nH]1)c1ccc([N+](=O)[O-])cc1` [SW209206-1], for which the IC50 was at least 49.5 µM.

Consider `Nc1cccc(C(=O)Nc2nc3ccccc3s2)c1` [SW209323-1], for which the IC50 came to 0.099 µM.

Still in this assay, the particulars now being: Tables 3 and 4; read-out: IC50 (uM) vs indicated non-small cell lung cancer cell line H2122.
With `COC(=O)c1ccc(C(=O)Nc2nc3ccc(N)cc3s2)cc1` [SW001296-3], the IC50 was determined as 18.5 µM.

The values above are taken from patent publication US9789096B2, “Methods and compositions for selective and targeted cancer therapy” (Board of Regents of the University of Texas System, priority 2013, dated 2017).
